Legend:
[1] = system: KB nasopharyngeal carcinoma cell line; experiment: In vitro cytotoxicity, methylene blue assay / cell count: KB; type: cell-based; conditions: three generations, mean ± standard deviation of five experiments, read-out: ID50 (the source's name)
[2] = system: DU-145 prostate carcinoma line; experiment: In vitro cytotoxicity, methylene blue assay / cell count: DU-145; type: cell-based; conditions: Homo sapiens, read-out: ID50 (the source's name)
[3] = system: PC-3 prostate carcinoma line; experiment: In vitro cytotoxicity, methylene blue assay / cell count: PC-3; type: cell-based; conditions: three generations, mean ± standard deviation of five experiments, read-out: ID50 (the source's name)
HepG2 cells = experiment: In vitro cytotoxicity, methylene blue assay / cell count: HepG2; type: cell-based; conditions: Homo sapiens, three generations, mean ± standard deviation of five experiments, read-out: ID50 (the source's name)
CEM cells = experiment: In vitro cytotoxicity, methylene blue assay / cell count: CEM; type: cell-based; conditions: Homo sapiens, CCRF-CEM, three generations, mean ± standard deviation of five experiments, read-out: ID50 (the source's name)
HepG2 tumors = experiment: HepG2 xenograft in NCr nude mice; type: in vivo, human; conditions: 25 mg/kg twice a day on days 0 through 4, NCr nude mice
Method: (§1) FIG. 5 is a graph of the inhibition of human tumor growth by […]. Three to six week old NCr nude mice were inoculated subcutaneously in each flank with 2×10^6 HepG2 or DU-145 cells. Treatment was started when the tumors were in an advanced stage of growth. Drugs were administered twice a day on days 0 through 4 and tumor sizes were measured on the indicated days. […] Each data point represents the means±SD of 10 tumors in graph A and six tumors in graph B.
(§2) Three to six-week-old NCr nude mice (Taconic Immunodeficient Mice and Rats) were inoculated s.c. in each flank with 2×10^6HepG2 or DU-145 cells and tumors were allowed to grow. Treatment was started when the tumors were 100-250mg as determined by caliper measurement and calculated according to the formula:
(§3) Tumor Weight(mg)=length(mm)×width(mm^2)÷2
(§4) Drugs were given at the indicated doses on days 0 through 4 and tumor sizes were measured every several days. The tumor growth curves were generated as described in Bell, et al., Cancer(phila.) 36:2437-2440 (1975), and are illustrated in FIGS. 5(a) and 5(b).

DU-145 tumors = experiment: DU-145 xenograft in NCr nude mice; type: in vivo, human; conditions: 25 mg/kg twice a day on days 0 through 4, NCr nude mice
Method: as §1, §2, §3, §4

NCr nude mice = type: in vivo; conditions: mouse, in vivo, 25 mg/kg
Method: as §4
Toxicity was evaluated by changes in body weight.

Work on `Nc1ccn([C@@H]2O[C@H](CO)[C@@H](O)[C@@H]2O)c(=O)n1` [AraC, Cytosine arabinoside] yielded an IC50 [1] of 152 ± 10 nM, an IC50 [2] of 170 ± 35 nM and an IC50 [3] of 200 ± 78 nM. The IC50 (HepG2 cells) was 125 ± 13 nM, the IC50 (CEM cells) was 30 ± 10 nM and the “Effect on HepG2 tumors in words” value (HepG2 tumors) was “ineffective”. The “Effect on HepG2 tumors in words” value (HepG2 tumors; listed as arac) was “inactive”, the “Effect on DU-145 tumors in words” value (DU-145 tumors) was “ineffective” and the “Toxicity as indicated by weight loss of the animals” value (NCr nude mice) was “equally toxic”.

Reference: patent publication US6436948B1, “Method for the treatment of psoriasis and genital warts” (priority 1995, dated 2002)
